This note sets out measurements from a melting point compilation (Tetko et al.; mined from patent text by program, amines drawn as free bases though some values may be those of a salt).

For orientation: melting point means the temperature of the solid-liquid transition.

In turn, `CN1CCCCCC1=NC(=O)Nc1cccc(Cl)c1` showed a melting point of 115 to 118 °C. `O=C(CCc1oc(-n2cncn2)nc1-c1ccc(Cl)cc1)NCCCl` returned a melting point of 157 to 158 °C. For `O=C(CCC(C(=O)O)N1C(=O)c2cccc(NCc3ccco3)c2C1=O)Nc1ccccc1` (stereo unspecified) the value was 146 to 148 °C; for `CC(C)COC(=O)COC(=O)CON1CC(NC(=O)OCc2ccccc2)C1=O` (stereo unspecified), 90 to 92 °C.

`CCOC(=O)CCSc1nnsc1-c1ccccc1` had a melting point of 57.5 to 58.5 °C. As for `CCOP(=O)(CC(=O)Nc1cc2c(Nc3ccc(Cl)c(Br)c3)ncnc2cn1)OCC`, the melting point was 113 to 116 °C.

Molecule `Cc1ccccc1-n1ccc2c(Cl)nc3c(C)cccc3c21` displayed a melting point of 135 to 137 °C. For `COc1cccc(C(=O)O)c1-c1ccccc1OC(C)C` the value was 139 to 140 °C; for `C#CCOC(=O)c1cc(Br)c(O)c(OC)c1`, 121 to 122 °C.

Molecule `COc1cc2c(cc1OC)CC(=O)NC=C2` had a melting point of 234 to 237 °C. Turning to `COc1ccccc1-c1ccc(C)cc1`, the melting point lay in the range of 70 to 72 °C. For `CNCCN(C)C(=O)OC(Cc1ccccc1)C(=O)N(C)C(Cc1c[nH]cn1)C(=O)NC(CC1CCCCC1)C(O)CCC(C)C` (stereo unspecified) the value was 65 to 68 °C; for `Cc1ccc(-c2cc(F)c(F)cc2-c2ccc(S(N)(=O)=O)cc2)cc1C`, 133 to 134 °C. Then `N#Cc1ncn2c1[C@@H]1CCN1C(=O)c1c(Br)cccc1-2`, with 133 to 136 °C; and `N#Cc1cnc2cc(-c3ccc(CO)cc3)sc2c1Nc1ccc(Oc2ccccc2)cc1`, with 225 to 228 °C. Then `COC(=O)c1cc([N+](=O)[O-])ccc1ON=C(C)c1ccccc1`, with 108 to 110 °C. Consider `Cc1cnc(CNC(=O)c2sc(N3C[C@@H](C)N(Cc4cc(F)cc(F)c4)C3=O)nc2C)cn1`, for which the melting point fell in the range of 131 to 132 °C. `CC[C@@]1(C=O)CCCN(CCc2c[nH]c3ccc(OC)cc23)C1=O` returned a melting point of 108 °C. Then `CCO[C@@H]1c2ccc3c(nc(C)n3C)c2O[C@H](c2ccccc2)[C@H]1OC(=O)C(C)(C)C`, with 164 °C.

For `CCOC(=O)C(=O)c1nsc(NC(=O)c2ccccc2)n1`, the melting point was in the range of 178 to 180 °C. Then `COc1ccc(C(=O)Nc2ccccc2)c(C(=O)Cc2ccccn2)c1`, with 145 to 148 °C. Then `CCNC(=O)c1ccc(COC(=O)c2ccc(OC)c(C(C)(C)C)c2)cc1`, with 107 to 108 °C. As for `N#Cc1cccc(-n2c(=O)oc3ccc(-c4ccc(F)cc4F)cc3c2=O)c1`, the melting point is 209 to 210 °C. For `CCCCCCCCCCCCCCOc1ccc(CN(C(=O)NC)c2cccc(COC(=O)NC)c2)cc1` the value was 107 to 109 °C. `CC(C)Oc1ccc(C2CCc3cccc(C(=O)O)c3N2)cc1` (stereo unspecified) had a melting point of 166 to 167 °C. For `C=C(CC1(CC(=C)C(=O)OC(C)(C)C)C(=O)N(C)C(=O)N(C)C1=O)C(=O)OC(C)(C)C` the value was 90 to 91 °C; for `COc1ccc2c(c1)CC=C(C=Cc1ccc(C#N)cc1)O2`, 224 to 226 °C; for `Cc1nc2c(N)nc3ccccc3c2n1CCCCOCCCc1ccccc1`, 105 to 106 °C. With `CCOC(=O)c1cn(C2CC2)c2nc3cc(Cl)c(F)cc3cc2c1=O`, the melting point came to 256 °C. `Cc1c(F)cc(C(=O)NC(C)C(C)C)cc1-c1ccc(C(=O)NCC(C)(C)C)cc1C(=O)Nc1nccs1` (stereo unspecified) showed a melting point of 234 to 239 °C. The molecule `Cc1ccnc(-c2nc(=O)c3ccc(Cl)cc3s2)c1` registered a melting point of 246 to 247 °C. Then `NC(=O)CCN1CC2CN(Cc3ccccc3)CC(C1)O2`, with 157 to 159 °C; and `CCCCc1c2ccccc2nc2cc(N)ccc12`, with 108 to 110 °C; and `COC(=O)c1cc(OC)cc2cc(-c3ccc(OC)c(F)c3)oc12`, with 121 to 123 °C.

Consider `CC(=O)OCC(=O)Nc1cccc(N2CCCCC2)c1C#N`, for which the melting point fell in the range of 90 to 92 °C. For `O=C(c1c2n(c3ccccc13)CCNCC2)C(F)(F)F` the value was 131 to 133 °C. For the molecule `CCC(=Cc1cccnc1)C(=O)NCCCCN1CCN(C(c2ccccc2)c2ccccc2)CC1`, the melting point lay in the range of 137 to 141 °C. `CCC(=O)C1=C(O)CC(c2ccc(Oc3ccc(S(C)(=O)=O)cc3)cc2)CC1=O` (stereo unspecified) registered a melting point of 157 to 158 °C. Then `O=C(O)CCCCCOc1ccc(CCc2ccncc2)cc1`, with 180 to 182 °C; and `CC(C)c1cccc(C(C)C)c1NC(=O)C(c1ccccc1)n1nnc(C(c2ccccc2)c2ccccc2)n1` (stereo unspecified), with 180 to 183 °C. `COc1cc2ccccc2c(OC)c1C(=O)O` showed a melting point of 119 to 123 °C.

In the case of `COC(=O)c1ccc(Cc2c[nH]c3ccc([N+](=O)[O-])cc23)c(OC)c1`, the melting point is 153 to 155 °C. Turning to `Cc1cnc2oc(-c3ccccc3)nc2c1`, the melting point was 71 to 73 °C. The molecule `Cc1nc2c3ccccc3ccn2c1Cc1nnn[nH]1` gave a melting point of 256 to 257 °C. Then `O=C(Oc1ccc(Oc2ccc(C(F)(F)F)cn2)cc1)N1CCS(=O)CC1`, with 156 to 157 °C. The molecule `CCc1ccc(C(=O)CCCSc2nnnn2C)cc1` gave a melting point of 68 to 69 °C. In turn, `O=C1c2ccccc2CN1C1CCN(c2ccc(C(OCc3ccncc3)c3ccccc3)cc2)CC1` (stereo unspecified) displayed a melting point of 77 to 81 °C.

`CCCCc1oc2ccccc2c1C(O)c1ccc(-c2ccc(OCC(=O)O)cc2)cc1` (stereo unspecified) displayed a melting point of 111 to 113 °C. For `CCCCCCCCCCCCCCCCCCOc1cc(N)cc(OCc2ccccc2)c1` the value was 57 to 59 °C; for `CCCCC(=O)C(C)(C)N1COC(C)=C(c2ccccc2)C1=O`, 157 to 158 °C; for `Nc1nc(-c2ccc(C(=O)N3CCN(S(=O)(=O)c4ccc5cc(Br)ccc5c4)CC3)cc2)c[nH]1`, 274 to 275 °C. Then `CC1(C)[C@@H](CNC(=O)C2CCC(F)(F)CC2)CC[C@@]1(C)NCC(=O)N1C[C@@H](F)C[C@H]1C#N`, with 193 to 195 °C. With `COc1cccc(S)c1S(N)(=O)=O`, the melting point was determined as 166 °C. In turn, `CCOC(=O)c1c(C)cc2c(c1C)c(=O)n(-c1ccccc1Cl)c(=O)n2CC(=O)NCCN(CC)CC` displayed a melting point of 193 to 194 °C. Then `CNC(=O)Nc1cccc(-c2noc(C(F)(F)F)n2)c1`, with 141 to 143 °C. For `CN1C(=O)C(Cc2ccccc2)(c2ccccc2OCCCCBr)c2ccccc21` (stereo unspecified) the value was 174 to 175 °C.

Take `Nc1nccc(Oc2ccc3c(c2)CCCCN3C(=O)Nc2cccc(C(F)(F)F)c2)n1`: the melting point is 207 °C. `CC(C)(C)OC(=O)CN(C(=O)CNC(=O)Nc1cnc2ccccc2c1)c1ccccc1` had a melting point of 191 °C. Molecule `CC(C)(C)c1ccc(Cn2ccc3ccc(-c4ccc(OC(F)(F)F)cc4)cc32)cc1` came in with a melting point of 100 to 102 °C. Turning to `COC(=O)c1c(-c2nccn2C)c2cnc(N3CCC[C@H]3CO)nc2n(Cc2ccc(OC)c(Cl)c2)c1=O`, the melting point lay within 142 to 145 °C. Then `COc1ccc(C=C2CS(=O)(=O)CC3=C2N=C2SCCN2C3c2ccc(OC)cc2)cc1` (stereo unspecified), with 235 to 240 °C. For `O=C(NC1CCN(CCCc2ccc(F)cc2)CC1)C1=Cc2cnc3cccc(n23)S1` the value was 117 to 119 °C; for `COc1ccc(C(C)(c2ccc(OC)cc2)c2ccc(N(c3ccc(C)cc3)c3ccc(C)cc3)cc2)cc1`, 147 to 148 °C; for `C[Si](C)(C)CCc1cn(-c2c(Cl)cc(C(F)(F)F)cc2Cl)nc1C#N`, 128 to 129 °C.

For the molecule `Nc1c(Cl)cc(C(=O)OCC2CCN(CCCn3nc(Cl)ccc3=O)CC2)c2c1CCO2`, the melting point came to 137 °C. As for `O=C(Oc1ccccc1Br)c1cc(-c2ccccc2)cn1CCc1ccccc1Br`, the melting point fell in the range of 90 to 92 °C.

For the molecule `CC12CCC(=O)C=C1CCC1C2=CCC2(C)C(=O)CCC12` (stereo unspecified), the melting point fell in the range of 196 to 202 °C. Take `CN1C(=O)C(=O)c2cnccc21`: the melting point lay within 140 to 142 °C. Then `O=CN(N=Cc1cccnc1)c1ccccc1`, with 129 to 132 °C. As to `CSCC[C@H](NC(=O)OC(C)(C)C)C(=O)NCC(=O)Oc1c(Cl)c(Cl)c(Cl)c(Cl)c1Cl`, the melting point is 169 to 171 °C. `O=C(Cn1c(-c2ccc(F)cc2)ncc(NC(=O)OCc2ccccc2)c1=O)NC(Cc1ccccc1)C(=O)C1=NCCO1` (stereo unspecified): the melting point lay in the range of 215 to 220 °C. In the case of `CCCCCOc1cc(-n2c(=O)cc(C(F)(F)F)n(C)c2=O)c(F)cc1Cl`, the melting point lay in the range of 64 to 66 °C. On to `CCOc1ccccc1C1(Cl)C(=O)Nc2ccc(Cl)cc21` (stereo unspecified), for which the melting point was 198 °C. In turn, `CCN1C(=O)c2sccc2N(C)c2ncccc21` gave a melting point of 119 to 120 °C. For `COc1ccc(-n2ncc(C(=O)O)c2Cl)cc1` the value was 241 to 242 °C; for `O=C(CCCI)c1ccc(F)cc1O`, 41.4 °C.

For `CCOC(Nc1ccccc1)(OCC)c1ccnc(C(=O)c2ccc(C)cc2)c1`, the melting point lay within 95 to 96 °C.

With `O=C1Nc2cccnc2N(C(=O)N2CCC(CCN3CCCCC3)CC2)c2ccccc21`, the melting point fell in the range of 178 to 180 °C. For `CNCc1cccc(C2CCN(c3c(F)c(N)c4c(=O)c(C(=O)O)cn(C5CC5)c4c3F)C2)c1` (stereo unspecified) the value was greater than 270 °C; for `C=CCCc1cccc2c1C(=O)C1=C(CCCC1)C2=O`, 111 to 113 °C. For `COc1ccc(N2C(=O)N(c3cccc(C(N)=O)c3)c3nc(Nc4cccc(CCN5CCN(C)CC5)c4)ncc3C2C)cc1` (stereo unspecified) the value was 243 to 251 °C; for `COc1ccc2c(c1)c(-c1[nH]c3ncccc3c1C)cn2C`, 237 °C; for `CC1(C)OC(=O)Nc2ccc(-c3ccc(F)c(F)c3)cc21`, 207 to 208 °C. Then `COc1ccc(C(=O)N2CSCC2=O)cc1`, with 123 to 124 °C. Take `CN(Cc1cc2cc([N+](=O)[O-])ccc2o1)C1Cc2ccc([N+](=O)[O-])cc2C1` (stereo unspecified): the melting point lay in the range of 109 to 111 °C. For `CNC(=S)C(OC)c1ccccn1` (stereo unspecified) the value was 104 to 105 °C.
